# Reference: patent US8685456B2, “Topical compositions comprising nanoparticles of an isoflavone” (DSM IP Assets B.V., priority 2005, dated 2014)
# Legend:
# [1] = Genistein particle size by laser diffraction technique (Mastersizer 2000); format: physicochemical
# [2] = “swing” test (changing temperature test, 5° C./43° C.), microscopical examination; format: physicochemical; conditions: O/W emulsions with genistein of example 7 after dry grinding in a Jet mill only (FIG. 7), 0.3%, 0.5% and 0.1% (1.0% elsewhere in the source); ten sequences 5° C./43° C., 24 hours each
# Experimental: To further illustrate the benefits obtained with nanoparticles of genistein versus conventional crystalline genistein, the cosmetic formulations described above (#3 and #4) were submitted to a very challenging stability test: The formulations were stored at a temperature varying from 5° C. to 43° C. every 24 hours during 3 weeks. […] (cycles of 24 hours at each temperature).
# To force the crystallization in a disperse system, a test was used in which the temperature is changed over a self-defined timeframe and in self-defined sequences. The test is called “swing” test (changing temperature test). The purpose of this test is to dissolve small particles at the higher temperature and to force re-crystallization at lower temperature. […] The following formulations were used for the “swing” test: […]
# To force this crystallization the “swing” test was used and as minimum and maximum temperatures 5° C. and 43° C. were chosen. Each temperature was held over a period of 24 hours. The duration of this test was at first set to 20 days, which means that the samples run through a cooling/heating sequence (=1 sequence) 10 times.
# FIGS. 5 to 7 show the results of the “swing” test. […] The following genistein samples and concentrations were employed and the emulsions were measured immediately after preparation and after subjecting the samples to ten sequences of the “swing” test: […]
# [3] = Example 1, after homogenization (42 passes) and spray-drying, re-dispersed in water
# [4] = Example 1, after homogenization (42 passes, 1500 bar) with starch sodium octenyl succinate, aqueous suspension
# [5] = Example 1, genistein powder before homogenization
# [6] = Example 2, after homogenization (40 passes, 1500 bar) in water, no carrier
# [7] = Example 2, after homogenization (42 passes) and spray-drying, re-dispersed in water
# [8] = Example 2, after homogenization (42 passes), starch sodium octenyl succinate added after 40th pass
# [9] = Example 2, genistein powder before homogenization
# [10] = Example 3, after homogenization (40 passes, 1500 bar) in water, no carrier
# [11] = Example 3, after homogenization (42 passes) and spray-drying, re-dispersed in water
# [12] = Example 3, after homogenization (42 passes), starch sodium octenyl succinate added after 40th pass
# [13] = Example 3, genistein powder before homogenization
# [14] = Example 4, after homogenization (20 passes, 700 bar) in water, no carrier
# [15] = Example 4, genistein powder before homogenization
# [16] = Example 5, Table XI, headed after homogenization (42 passes) and spray-drying, maltodextrin added after 40th pass, suspension before drying
# [17] = Example 5, Table XII, after homogenization (42 passes) and spray-drying, maltodextrin carrier, re-dispersed in water
# [18] = Example 5, after homogenization (20 passes) as headed, text: 40 times, 1500 bar, in water, no carrier
# [19] = Example 5, genistein powder before homogenization
# [20] = Example 6, after homogenization (11 passages) in agitated bead mill with starch sodium octenyl succinate
# [21] = Example 6, genistein powder before homogenization
# [22] = Example 7, Table XIV, before milling and homogenization
# [23] = Example 7, Table XV, before milling and homogenization
# [24] = Example 7, after milling (Jet mill) and homogenization (12 times, 700 bar) with starch sodium octenyl succinate
# [25] = Example 7, after milling, homogenization and spray drying
smiles,measurement,setting,value
"O=c1c(-c2ccc(O)cc2)coc2cc(O)cc(O)c12 [Genistein, 4′,5,7-trihydroxyisoflavone]","Average particle size D[3, 2]",[1]; [3],0.14 microns
same,"Average particle size D[4, 3]",[1]; [3],0.83 microns
same,"D (v, 0.1)",[1]; [3],0.07 microns
same,"D (v, 0.5)",[1]; [3],0.16 microns
same,"D (v, 0.9)",[1]; [3],2.86 microns
same,"Average particle size D[3, 2]",[1]; [4],0.15 microns
same,"Average particle size D[4, 3]",[1]; [4],0.97 microns
same,"D (v, 0.1)",[1]; [4],0.07 microns
same,"D (v, 0.5)",[1]; [4],0.17 microns
same,"D (v, 0.9)",[1]; [4],3.65 microns
same,"Average particle size D[3, 2]",[1]; [5],23.1 microns
same,"Average particle size D[4, 3]",[1]; [5],48.5 microns
same,"D (v, 0.1)",[1]; [5],17.1 microns
same,"D (v, 0.5)",[1]; [5],41.9 microns
same,"D (v, 0.9)",[1]; [5],91.0 microns
same,"Average particle size D[3, 2]",[1]; [6],0.14 microns
same,"Average particle size D[4, 3]",[1]; [6],0.76 microns
same,"D (v, 0.1)",[1]; [6],0.07 microns
same,"D (v, 0.5)",[1]; [6],0.16 microns
same,"D (v, 0.9)",[1]; [6],2.42 microns
same,"Average particle size D[3, 2]",[1]; [7],0.14 microns
same,"Average particle size D[4, 3]",[1]; [7],0.55 microns
same,"D (v, 0.1)",[1]; [7],0.07 microns
same,"D (v, 0.5)",[1]; [7],0.15 microns
same,"D (v, 0.9)",[1]; [7],1.14 microns
same,"Average particle size D[3, 2]",[1]; [8],0.14 microns
same,"Average particle size D[4, 3]",[1]; [8],0.41 microns
same,"D (v, 0.1)",[1]; [8],0.07 microns
same,"D (v, 0.5)",[1]; [8],0.16 microns
same,"D (v, 0.9)",[1]; [8],0.93 microns
same,"Average particle size D[3, 2]",[1]; [9],23.1 microns
same,"Average particle size D[4, 3]",[1]; [9],48.5 microns
same,"D (v, 0.1)",[1]; [9],17.1 microns
same,"D (v, 0.5)",[1]; [9],41.9 microns
same,"D (v, 0.9)",[1]; [9],91.0 microns
same,"Average particle size D[3, 2]",[1]; [10],0.14 microns
same,"Average particle size D[4, 3]",[1]; [10],0.76 microns
same,"D (v, 0.1)",[1]; [10],0.07 microns
same,"D (v, 0.5)",[1]; [10],0.16 microns
same,"D (v, 0.9)",[1]; [10],2.00 microns
same,"Average particle size D[4, 3]",[1]; [11],0.43 microns
same,"D (v, 0.1)",[1]; [11],0.07 microns
same,"D (v, 0.5)",[1]; [11],0.16 microns
same,"D (v, 0.9)",[1]; [11],0.97 microns
same,"Average particle size D[3, 2]",[1]; [12],0.14 microns
same,"Average particle size D[4, 3]",[1]; [12],0.40 microns
same,"D (v, 0.1)",[1]; [12],0.07 microns
same,"D (v, 0.5)",[1]; [12],0.16 microns
same,"D (v, 0.9)",[1]; [12],0.91 microns
same,"Average particle size D[3, 2]",[1]; [13],23.1 microns
same,"Average particle size D[4, 3]",[1]; [13],48.5 microns
same,"D (v, 0.1)",[1]; [13],17.1 microns
same,"D (v, 0.5)",[1]; [13],41.9 microns
same,"D (v, 0.9)",[1]; [13],91.0 microns
same,"Average particle size D[3, 2]",[1]; [14],0.13 microns
same,"Average particle size D[4, 3]",[1]; [14],0.83 microns
same,"D (v, 0.1)",[1]; [14],0.07 microns
same,"D (v, 0.5)",[1]; [14],0.15 microns
same,"D (v, 0.9)",[1]; [14],2.62 microns
same,"Average particle size D[3, 2]",[1]; [15],23.1 microns
same,"Average particle size D[4, 3]",[1]; [15],48.5 microns
same,"D (v, 0.1)",[1]; [15],17.1 microns
same,"D (v, 0.5)",[1]; [15],41.9 microns
same,"D (v, 0.9)",[1]; [15],91.0 microns
same,"Average particle size D[3, 2]",[1]; [16],0.14 microns
same,"Average particle size D[4, 3]",[1]; [16],0.41 microns
same,"D (v, 0.1)",[1]; [16],0.07 microns
same,"D (v, 0.5)",[1]; [16],0.16 microns
same,"D (v, 0.9)",[1]; [16],0.93 microns
same,"Average particle size D[3, 2]",[1]; [17],0.13 microns
same,"Average particle size D[4, 3]",[1]; [17],0.41 microns
same,"D (v, 0.1)",[1]; [17],0.07 microns
same,"D (v, 0.5)",[1]; [17],0.15 microns
same,"D (v, 0.9)",[1]; [17],0.93 microns
same,"Average particle size D[2, 3]",[1]; [18],0.14 microns
same,"Average particle size D[4, 3]",[1]; [18],0.42 microns
same,"D (v, 0.1)",[1]; [18],0.07 microns
same,"D (v, 0.5)",[1]; [18],0.16 microns
same,"D (v, 0.9)",[1]; [18],0.92 microns
same,"Average particle size D[2, 3]",[1]; [19],23.1 microns
same,"Average particle size D[4, 3]",[1]; [19],48.5 microns
same,"D (v, 0.1)",[1]; [19],17.8 microns
same,"D (v, 0.5)",[1]; [19],41.4 microns
same,"D (v, 0.9)",[1]; [19],90.2 microns
same,"Average particle size D[4, 3]",[1]; [20],0.23 microns
same,"D (v, 0.1)",[1]; [20],0.07 microns
same,"D (v, 0.5)",[1]; [20],0.16 microns
same,"D (v, 0.9)",[1]; [20],0.45 microns
same,"Average particle size D[4, 3]",[1]; [21],48.5 microns
same,"D (v, 0.1)",[1]; [21],17.8 microns
same,"D (v, 0.5)",[1]; [21],41.4 microns
same,"D (v, 0.9)",[1]; [21],90.2 microns
same,"Average particle size D[4, 3]",[1]; [22],48.5 microns
same,"D (v, 0.1)",[1]; [22],17.8 microns
same,"D (v, 0.5)",[1]; [22],41.4 microns
same,"D (v, 0.9)",[1]; [22],90.2 microns
same,"Average particle size D[4, 3]",[1]; [23],48.5 microns
same,"D (v, 0.1)",[1]; [23],17.8 microns
same,"D (v, 0.5)",[1]; [23],41.4 microns
same,"D (v, 0.9)",[1]; [23],90.2 microns
same,"Average particle size D[4, 3]",[1]; [24],0.53 microns
same,"D (v, 0.1)",[1]; [24],0.07 microns
same,"D (v, 0.5)",[1]; [24],0.18 microns
same,"D (v, 0.9)",[1]; [24],1.38 microns
same,"Average particle size D[4, 3]",[1]; [25],0.65 microns
same,"D (v, 0.1)",[1]; [25],0.08 microns
same,"D (v, 0.5)",[1]; [25],0.19 microns
same,"D (v, 0.9)",[1]; [25],1.84 microns
same,"Average particle size D[2, 3]","[1]; after homogenization (42 passes) and spray-drying, re-dispersed in water",0.14 microns
same,Change of particle size during the “swing” test,[2],significantly changed
